Laboratory results: US7309591B2, “Method for the production of resveratrol in cell cultures” (Universidad de Alicante, priority 2002, dated 2007)

Assays:
[1] = tested on: Vitis vinifera var. Gamay rouge cells; test: Elicitation of t-resveratrol production in grapevine cell suspension, Gamay rouge; format: cell-based; details: cyclodextrin 50 mmol/liter in medium (BETA 15 mmol/liter); 96 hours of incubation; occasional presence of other unidentified phenolic products
Description: Vitis vinifera var. Gamay rouge: A grapevine cell line established by J. C. Pech in 1978 (ENSAT, Toulouse, France) from immature fruits of grapevine from the cultivar Gamay Fréaux has been used. The calluses were kept in 250 ml flasks containing 80 ml of Gamborg B5 basal medium (Gamborg et al. 1968. Experimental Cell Research 50:151-158) supplemented with Morel vitamins (Morel, G. 1970. “Le probléme de la transformation tumorale chez les végétaux”. Physiologie Végétale, 8:189-204), casein hydrolysate (0.25 g/l), saccharose (20 g/l) as carbonated source, and α-nafthalenacetic acid (0.1 mg/l) and kinetin (0.2 mg/l) as hormones (hereinafter, medium). This medium is adjusted to pH 6 and sterilized by applying humid heat (autoclave) for 20 min at a pressure of 121.2 kPa (1.2 athm), acquiring a solid consistency by the addition of purified agar (8 g/l) when the medium is cooled. Cell suspensions were started, from friable calluses obtained in the above described medium, in 250 ml flasks containing 80 ml of agar-free medium. The cells in liquid medium were kept in an orbital shaker at 100 rpm and 25° C., under a photoperiod of 14 hours of light (6 W/m^2) and 10 h in the dark.
(§1) For each elicitation experience, 4 g of fresh weight of cells previously washed with fresh medium and filtered were taken under sterile conditions. These cells were transferred to 50 ml flasks and replaced by the addition of 10 ml of sterile fresh medium supplemented in each case with the cyclodextrins stated below:
(§2) The flasks were incubated under the same conditions as described above for time periods ranging from 24 and 96 hours.
(§3) Once the incubation time had been completed, the cells were separated from the medium by filtration by making a slight vacuum with the help of a water pump, and the cells and the filtrate were separately collected.
(§4) For this, an aliquot of the filtrate was diluted in fresh medium, filtered through a 0.2 μm Anopore filter, and 20 μl of filtrate were injected in a LiChrospher 100 RP-18 column (250×4 mm, particle size 5 μm). Two types of solvents were used as mobile phase: solvent A, 0.05% trifluoroacetic acid in water, and solvent B, 0.05% trifluoroacetic acid in methanol:acetonitrile 60:40 vol/vol. The sample is eluted at a flow rate of 1 ml/min of the following solvent mixture: 0 min, 10% B; 5 min, 15% B; 40 min, 35% B; 45 min, 65% B; 50 min, 65% B; 55 min, 10% B; and at a column temperature of 35° C. (Dalluge et al., 1998. J. Chromatogr. A 793:265-274). […] Gamay corresponding to the start of incubation and to 96 hours of incubation in a culture medium containing RAMEB.
For routine analysis of t-resveratrol, an aliquot of the filtrate was diluted with fresh medium and its ultraviolet absorption spectrum was recorded using a Kontron Uvikon 940 spectrophotometer taking as reference the fresh medium. The concentration of t-resveratrol in the supernatant was estimated using a molar extinction coefficient at 306 nm of 26,800 M^−1 cm^−1 (Siemann, E. H. and Creasy, L. L. 1992, “Concentration of the phytoalexin resveratrol in wine”, Am. J. Enol. Vitic. 43:49-52). […] Gamay corresponding to the start of incubation and to 96 hours of incubation in a culture medium containing RAMEB.
The results obtained, expressed as mg of t-resveratrol per litre of filtrate, eliciting the cells with different cyclodextrins at concentrations of 50 mmol/litre of culture medium (except for BETA, for which the concentration corresponds to 15 mmol/litre due to its lower solubility), after 96 hours of incubation are given in Table 1.

[2] = tested on: grapevine cells in suspension; test: Effect of cyclodextrins on grapevine cells in suspension (overall comparison, toxicity); format: cell-based, Vitis vinifera; details: for Capacity to induce the synthesis of t-resveratrol compared with the other cyclodextrins tested: grapevine cells in suspension, 96 hours
Description: as §1, §2
It is also noted that the intensity of the effect depends on the variety and the cell line (greater production is seen in the albino Monastrell variety than in the green Monastrell variety).

[3] = tested on: Vitis vinifera var. Monastrell albino line cells; test: Elicitation of t-resveratrol production in grapevine cell suspension, Monastrell albino; format: cell-based; details: cyclodextrin 50 mmol/liter in medium (BETA 15 mmol/liter); 96 hours of incubation; kept in the dark
Description: (§5) Vitis vinifera var. Monastrell: Two grapevine cell lines of cultivar Monastrell, one established in the dark (albino line) and another established in the presence of white light (green line) from immature fruits have been used. All manipulations and incubations for the green line were carried out in lighting conditions, but for the albino line, incubations for callus generation, development, and growth, as well as incubations of cell suspensions, were performed in the dark. For this, immature grapes approximately 5 mm in diameter were superficially sterilized by immersion in a 7% calcium hypochlorite solution for 15 minutes. After this time, and always under sterile conditions, grapes were washed 3 times with sterile bidistilled water, their seeds removed, and were divided into 4 portions. These portions (explants) were deposited until microcalluses appeared in a Petri dish containing a solid culture medium based on the medium reported by Murashige and Skoog (Murashige, T and Skoog, F. 1962. “A revised medium for rapid growth and bioassays with tobacco tissue cultures”. Physiologia Plantarum 15:473-497), supplemented with Morel vitamins, casein hydrolysate (0.25 g/l), saccharose (30 g/l) as carbonated source, and α-nafthalenacetic acid (0.1 mg/l) and kinetin (0.2 mg/l) as hormones, 8 g/l of purified agar, and adjusted to pH 6. Finally, these microcalluses were transferred to 250 ml flasks containing 80 ml of this same solid culture medium for callus development. Cell suspensions were started, from friable calluses, in 250 ml flasks containing 80 ml of Gamborg B5 basal medium, supplemented with Morel vitamins, casein hydrolysate (0.25 g/l), saccharose (20 g/l) as carbonated source, and α-nafthalenacetic acid (0.1 mg/l) and kinetin (0.2 mg/l) as hormones, in the absence of agar. The cells in liquid medium were kept in an orbital shaker at 100 rpm and 25° C.; the green line was submitted to a photoperiod of 14 hours of light (6 W/m^2) and 10 h in the dark, whereas the albino line was kept in the dark at all times.
as §1, §2, §3, §4
(§6) For routine analysis of t-resveratrol, an aliquot of the filtrate was diluted with fresh medium and its ultraviolet absorption spectrum was recorded using a Kontron Uvikon 940 spectrophotometer taking as reference the fresh medium. The concentration of t-resveratrol in the supernatant was estimated using a molar extinction coefficient at 306 nm of 26,800 M^−1 cm^−1 (Siemann, E. H. and Creasy, L. L. 1992, “Concentration of the phytoalexin resveratrol in wine”, Am. J. Enol. Vitic. 43:49-52). […]

[4] = tested on: Vitis vinifera var. Monastrell green line cells; test: Elicitation of t-resveratrol production in grapevine cell suspension, Monastrell green; format: cell-based; details: cyclodextrin 50 mmol/liter in medium (BETA 15 mmol/liter); 96 hours of incubation; heavy presence of cis-resveratrol
Description: as §5, §1, §2, §3, §4, §6

[5] = Solubility of t-resveratrol in an aqueous medium; format: physicochemical; details: 25° C., 5 days in the dark
Description: Five millilitres of a 11,410 mg/l solution of t-resveratrol (99% pure according to the supplier; Sigma, Madrid) in ethanol were placed in an spherical bottle, and ethanol was evaporated to dryness with a N2 current. Residual ethanol was eliminated by keeping the bottle under low pressure overnight. Five millilitres of aqueous medium were added to the solid residue, and the bottle was tightly closed and kept under shaking at 25° C. for 5 days in the dark. The resulting suspension was filtered through 0.2 μm Anopore filters, and the concentration of t-resveratrol in the filtrate was analyzed by UV spectroscopy.
The concentration of t-resveratrol in the filtrates, expressed as mg oft-resveratrol per litre of filtrate, is given in Table 2.

[6] = tested on: crypt formation in aberrant colon; details: rat model treated with a carcinogenic agent (azoxymethane); cited from earlier work
[7] = tested on: grapevine cell suspensions (Vitis vinifera var. Gamay); details: cited from earlier work

Compound	Trans-Resveratrol (mg/l) in filtrate, Gamay Rouge [1]	Trans-Resveratrol (mg/l) in filtrate, Monastrell albino [3]	Trans-Resveratrol (mg/l) in filtrate, Monastrell green [4]	also measured
Randomly methylated β-cyclodextrin [RAMEB]	3320 mg/L	5027 mg/L	101 mg/L	Capacity to induce the synthesis of t-resveratrol compared with the other cyclodextrins tested [2]: greater capacity to induce the synthesis of t-resveratrol
OC[C@H]1O[C@@H]2O[C@H]3[C@H](O)[C@@H](O)[C@@H](O[C@H]4[C@H](O)[C@@H](O)[C@@H](O[C@H]5[C@H](O)[C@@H](O)[C@@H](O[C@H]6[C@H](O)[C@@H](O)[C@@H](O[C@H]7[C@H](O)[C@@H](O)[C@@H](O[C@H]8[C@H](O)[C@@H](O)[C@@H](O[C@H]1[C@H](O)[C@H]2O)O[C@@H]8CO)O[C@@H]7CO)O[C@@H]6CO)O[C@@H]5CO)O[C@@H]4CO)O[C@@H]3CO [BETA, β-cyclodextrin]	30 mg/L	60 mg/L	0 mg/L	–
(2-hydroxy) propyl-β-cyclodextrin [HYPROB]	990 mg/L	4110 mg/L	90 mg/L	–
Oc1ccc(/C=C/c2cc(O)cc(O)c2)cc1 [t-resveratrol, trans-3,5,4′-trihydroxystilbene]	–	–	–	Solubility of t-resveratrol ([5]; Culture medium supplemented with 6.55 mg/ml of CAVASOL ® W7 M): 767 mg t-resveratrol/liter filtrated; Solubility of t-resveratrol ([5]; Culture medium supplemented with 6.55 mg/ml of DIMEB): 735 mg t-resveratrol/liter filtrated; Solubility of t-resveratrol ([5]; Culture medium supplemented with 6.55 mg/ml of RAMEB): 786 mg t-resveratrol/liter filtrated; Solubility of t-resveratrol ([5]; Culture medium): 48.8 mg t-resveratrol/liter filtrated; Solubility of t-resveratrol ([5]; Ultrapure water): 36.5 mg t-resveratrol/liter filtrated; Inhibition of crypt formation in aberrant colon [6]: significant inhibition of crypt formation
Randomly methylated β-cyclodextrin [CAVASOL ® W7 M]	3280 mg/L	4963 mg/L	92 mg/L	Capacity to induce the synthesis of t-resveratrol compared with the other cyclodextrins tested [2]: greater capacity to induce the synthesis of t-resveratrol
COC[C@H]1O[C@@H]2O[C@H]3[C@H](O)[C@@H](OC)[C@@H](O[C@H]4[C@H](O)[C@@H](OC)[C@@H](O[C@H]5[C@H](O)[C@@H](OC)[C@@H](O[C@H]6[C@H](O)[C@@H](OC)[C@@H](O[C@H]7[C@H](O)[C@@H](OC)[C@@H](O[C@H]8[C@H](O)[C@@H](OC)[C@@H](O[C@H]1[C@H](O)[C@H]2OC)O[C@@H]8COC)O[C@@H]7COC)O[C@@H]6COC)O[C@@H]5COC)O[C@@H]4COC)O[C@@H]3COC [DIMEB, Heptakis (2,6-di-O-methyl)-β-cyclodextrin]	3060 mg/L	4680 mg/L	90 mg/L	Ability to induce synthesis of t-resveratrol excreted into the culture medium [7]: induce
OC[C@H]1O[C@H](O[C@H]2[C@H](O)[C@@H](O)[C@@H](OC[C@H]3O[C@@H]4O[C@H]5[C@H](O)[C@@H](O)[C@@H](O[C@H]6[C@H](O)[C@@H](O)[C@@H](O[C@H]7[C@H](O)[C@@H](O)C(O[C@H]8[C@H](O)[C@@H](O)[C@@H](O[C@H]9[C@H](O)[C@@H](O)[C@@H](O[C@H]%10[C@H](O)[C@@H](O)[C@@H](O[C@H]3[C@H](O)[C@H]4O)O[C@@H]%10CO)O[C@@H]9CO)O[C@@H]8CO)O[C@@H]7CO)O[C@@H]6CO)O[C@@H]5CO)O[C@@H]2CO)[C@H](O)[C@@H](O)[C@@H]1O [MALTOSYL, Maltosyl-β-cyclodextrin]	390 mg/L	660 mg/L	20 mg/L	–
sulphated β-cyclodextrin sodium salt [SULFOB]	0 mg/L	0 mg/L	0 mg/L	Toxicity to grapevine cells in suspension ([2]; 50 mmol/liter in culture medium): toxic and kill the cells
